The values that follow come from patent publication US7390642B2, “Salutaridinol 7-O-acetyltransferase and derivatives thereof” (priority 2001, dated 2008).

The target of data set [1] is T1, salutaridinol 7-O-acetyltransferase (Papaver somniferum, UniProt Q94FT4).
The target of data set [2] is T1, salutaridinol 7-O-acetyltransferase. Briefly: Inhibition of enzyme activity by covalent modification with diethylpyrocarbonate. It is filed as biochemical, P. somniferum. Set-up: The full-length cDNA generated by RT-PCR was ligated into pFastBac HTa; His tag (N); made in house; host or cells: Spodoptera frugiperda Sf9 cells (baculovirus, pFastBac HTa); purified from culture medium. An excerpt: Sequence Analysis of pSalAT: Translation of the complete nucleotide sequence of salAT yielded a polypeptide of 474 amino acids containing no apparent signal peptide. This is consistent with the cytosolic localization of the enzyme activity (6). The enzyme activity is also operationally found associated with the cytosolic fraction of exuded latex. The salAT amino acid sequence contains residues conserved in other plant acetyltransferases as indicated by the black boxes in FIG. 2 (SEQ. IDs No.7 to 12). The longest contiguous region of conserved amino acids are the five residues DFGWG near the carboxy terminus that were used for primer design and are indicated by an arrow. Conserved histidine and aspartate residues (HXXXD; denoted by # in FIG. 2) thought to be involved in catalysis as characterized by x-ray crystallography for the bacterial enzymes chloramphenicol acetyltransferase and dihydrolipoamide acetyltransferase are also present in salutaridinol 7-O-acetyltransferase (23,24).

For data set [3], the system named is COC1=C[C@]23CCN(C)[C@H](Cc4ccc(OC)c(O)c42)C3=C[C@@H]1O. Briefly: purified protein, by the assay type. The following applies: other: fixed concentration of acetyl CoA of 30 mm; recombinant enzyme.
The test system of data set [4] is CC(=O)SCCNC(=O)CCNC(=O)[C@H](O)C(C)(C)COP(=O)(O)OP(=O)(O)OC[C@H]1O[C@@H](n2cnc3c(N)ncnc32)[C@H](O)[C@@H]1OP(=O)(O)O. Briefly: purified protein, by the assay type.
Where [5] appears, read: standard assay conditions, acetylation of salutaridinol.

Like-named read-outs stand apart in the source and are kept apart here.

On to `COC1=C[C@]23CCN(C)[C@H](Cc4ccc(OC)c(O)c42)C3=C[C@@H]1O` [7(R)-salutaridinol], for which, in data set [1] (recombinant enzyme, acetyl CoA), the “acetylation at C-7 by the recombinant enzyme (substrate acceptance)” value (“acetylation” below) was “not”.
Regarding `CCOC(=O)OC(=O)OCC` [DEPC, diethylpyrocarbonate], in data set [2], the “effect of carbethoxylation of histidine residues on enzyme activity” value is recorded as “loss of enzyme activity”. Moreover, in data set [2] (3 mM DEPC), the inhibition – broadly, the relative decrease from the control value, in per cent – at 3000 µM was found to be 50%. This molecule had an inhibition at 5000 µM in data set [2] (5 mM DEPC) of 92%. In addition, the inactivation of enzyme in data set [2] (5 mM DEPC after preincubation of the enzyme with 30 mM acetyl CoA) turned out to be 46%.
For the molecule `[3H]C1(O)C=C2C3Cc4ccc(OC)c(O)c4C2(C=C1OC)CCN3C` (centres unmarked) [[7-^3H]salutaridinol], the “conversion into a product that co-migrated during TLC with authentic thebaine standard” value in data set [1] (radioassay of pure, recombinant enzyme) turned out to be 100%.
Take `CC[C@]12C=CCN3CC[C@@]4(c5ccc(OC)cc5N(C)[C@H]4[C@@](O)(C(=O)OC)[C@@H]1O)[C@@H]32` [deacetylvindoline]: in data set [1] (recombinant enzyme, acetyl CoA), the “acetylation” value is on record as “not”.
On to `CN1CC[C@]23c4c5ccc(O)c4O[C@H]2[C@@H](O)C=C[C@H]3[C@H]1C5` [morphine], for which the “acetylation” value in data set [1] is listed as “not”.
`COC1=C[C@]23CCN(C)[C@H](Cc4cc5c(cc42)OCO5)C3=C[C@@H]1O` [nudaurine]: the “Vmax (nudaurine)” value in data set [1] (nudaurine as substrate) worked out at 19 pmol/s. For the same molecule, the Km (as a rule, the concentration of substrate that gives half-maximal velocity) in data set [1] (read-out: apparent Km nudaurine, at 30 mM acetyl CoA) turned out to be 23 µM. Besides, in data set [1] (recombinant enzyme, acetyl CoA), the “acetylation” value is on record as “acetylated”.
In the case of `COC1=C[C@]23CCN(C)[C@H](Cc4ccc(OC)c(O)c42)C3=CC1=O` [salutaridine], in data set [1] (recombinant enzyme, acetyl CoA), the “acetylation” value was “not”.
As for `COC1=C[C@]23CCN(C)[C@H](Cc4ccc(OC)c(O)c42)C3=C[C@@H]1O` [salutaridinol, 7(S)-salutaridinol], in data set [1] (preference of salutaridinol over nudaurine, factor), the “ratio kcat/Km (salutaridinol):kcat/Km(nudaurine)” value stood at 3.3. The “acetylation” value in data set [1] (recombinant enzyme, acetyl CoA, listed as 7(S)-salutaridinol) was “acetylated”.
“salutaridinol 7-O-acetyltransferase (Papaver somniferum)”: the Michaelis-Menten constant (Km) came to 9 µM in data set [3]; 106 µM in data set [4] (other: at 10 mM nudaurine); 54 µM in data set [4] (other: fixed concentration of salutaridinol of 10 mM, recombinant enzyme). Besides, in data set [3], the maximum rate (Vmax) (commonly the rate approached at saturating substrate) worked out at 25 pmol/s.

B1: recombinant enzyme: P. somniferum salutaridinol 7-O-acetyltransferase, SEQ. ID No. 14, 474 amino acids (protein, listed as Papaver somniferum)
chain: MATMYSAAVEVISKETIKPTTPTPSQLKNFNLSLLDQCFPLYYYVPIILFYPATAANSTGSSNHHDDLDLLKSSLSKTLVHFYPMAGRMIDNILVDCHDQGINFYKVKIRGKMCEFMSQPDVPLSQLLPSEVVSASVPKEALVIVQVNMFDCGGTAICSSVSHKIADAATMSTFIRSWASTTKTSRSGGSTAAVTDQKLIPSFDSASLFPPSERLTSPSGMSEIPFSSTPEDTEDDKTVSKRFVFDFAKITSVREKLQVLMHDNYKSRRQTRVEVVTSLIWKSVMKSTPAGFLPVVHHAVNLRKKMDPPLQDVSFGNLSVTVSAFLPATTTTTTNAVNKTINSTSSESQVVLHELHDFIAQMRSEIDKVKGDKGSLEKVIQNFASGHDASIKKINDVEVINFWISSWCRMGLYEIDFGWGKPIWVTVDPNIKPNKNCFFMNDTKCGEGIEVWASFLEDDMAKFELHLSEILELI
With B1, in data set [1] (setting [5]), the pH optimal range is listed as 7-9 and the temperature optimum is 47 °C.
